Test results reported in the OligoGym collection.
Several values for one entry are separate records, joined by “and”; a condition that tells them apart may be missing. Identical values can stand only once. After the bases stand the sugars from the 5' end (letter, count) and the backbone: PS all phosphorothioate, else s phosphorothioate and o phosphodiester by linkage. Methylation of C is not given here. e = 2'-O-(2-methoxyethyl) (MOE); k = constrained ethyl (cEt); d = 2'-deoxy (DNA)

Molecular target: SOD1
Conditions: ASO

“GTTTTCTGGATAGAGGATTA (sugars e5 d10 e5, PS)” was tested, and the target mRNA inhibition (HepG2, 5 µM) was 28% and 39%.
“TGTTTATTGGGCGATCC (sugars e2 k2 d8 k2 e3, PS)” was tested, and the target mRNA inhibition (HepG2, 4 µM) was 50%.
Work on “CCCTTCAGCACGCACACGGC (sugars e5 d10 e5, PS)” yielded a target mRNA inhibition (HepG2, 0.1875 µM) of 17%, a target mRNA inhibition (HepG2, 0.75 µM) of 26% and a target mRNA inhibition (HepG2, 3 µM) of 59%. For the same sequence, the target mRNA inhibition (HepG2, 4 µM) was 37% and the target mRNA inhibition (HepG2, 12 µM) was 83%.
Sequence “AACAGATGAGTTAAGGG (sugars e2 k2 d8 k2 e3, PS)” has a target mRNA inhibition (HepG2, 0.1875 µM) of 32%, a target mRNA inhibition (HepG2, 0.75 µM) of 55% and a target mRNA inhibition (HepG2, 3 µM) of 78%. The target mRNA inhibition (HepG2, 4 µM) was 73% and the target mRNA inhibition (HepG2, 12 µM) was 93%.
“GGATACATTTCTACAGC (sugars e4 d9 k2 e2, linkages s1 o3 s9 o1 s2)” showed a target mRNA inhibition (A431, 0.062 µM) of 0%, a target mRNA inhibition (A431, 0.185 µM) of 1% and a target mRNA inhibition (A431, 0.556 µM) of 13%. The target mRNA inhibition (A431, 1.667 µM) was 28%, the target mRNA inhibition (A431, 5 µM) was 42% and the target mRNA inhibition (A431, 15 µM) was 55%. The target mRNA inhibition (SH-SY5Y, 0.062 µM) was 10%, the target mRNA inhibition (SH-SY5Y, 0.185 µM) was 3% and the target mRNA inhibition (SH-SY5Y, 0.556 µM) was 23%. It also gave a target mRNA inhibition (SH-SY5Y, 1.667 µM) of 35%, a target mRNA inhibition (SH-SY5Y, 5 µM) of 77% and a target mRNA inhibition (SH-SY5Y, 15 µM) of 78%.
With “CAAAATACAGGTCATTG (sugars e3 k2 d7 k2 e3, PS)” the target mRNA inhibition (HepG2, 3 µM) was 23%.
“CCAATTACACCACAAGC (sugars e2 k2 d8 k2 e3, PS)” showed a target mRNA inhibition (HepG2, 4 µM) of 66%.
“CTTTTAAGATTACAGTG (sugars e2 k2 d9 k2 e2, PS)” was tested, and the target mRNA inhibition (HepG2, 5 µM) was 53%.
In the case of “AAGTTTAATACCCATCT (sugars e2 k2 d9 k2 e2, PS)”, the target mRNA inhibition (HepG2, 5 µM) was 59%.
With “ATGTTTATCAGGATACA (sugars e2 k2 d8 k2 e3, linkages s1 o2 s9 o2 s2)” the target mRNA inhibition (A431, 0.12 µM) was 2%, the target mRNA inhibition (A431, 0.6 µM) was 4% and the target mRNA inhibition (A431, 3 µM) was 12%. For the same sequence, the target mRNA inhibition (A431, 15 µM) was 52%, the target mRNA inhibition (HepG2, 0.222 µM) was 53% and the target mRNA inhibition (HepG2, 0.667 µM) was 73%. It also gave a target mRNA inhibition (HepG2, 2 µM) of 89% and a target mRNA inhibition (HepG2, 6 µM) of 90%.
“AGGATACATTTCTACAGC (sugars e5 d8 e5, linkages s1 o3 s9 o2 s2)” gave a target mRNA inhibition (A431, 0.12 µM) of 42%, a target mRNA inhibition (A431, 0.6 µM) of 23% and a target mRNA inhibition (A431, 3 µM) of 26%. For the same sequence, the target mRNA inhibition (A431, 15 µM) was 45%, the target mRNA inhibition (HepG2, 0.222 µM) was 9% and the target mRNA inhibition (HepG2, 0.667 µM) was 43%. For the same sequence, the target mRNA inhibition (HepG2, 2 µM) was 65% and the target mRNA inhibition (HepG2, 6 µM) was 86%.
With “CTGGCAAAATACAGGTC (sugars e3 k2 d7 k2 e3, PS)” the target mRNA inhibition (HepG2, 3 µM) was 18%.
For “TTAAGTCTGGCAAAATA (sugars e2 k2 d9 k2 e2, PS)”, the target mRNA inhibition (HepG2, 5 µM) was 42%.
“GATTACAGTGTTTAATG (sugars e2 k2 d9 k2 e2, PS)” gave a target mRNA inhibition (HepG2, 5 µM) of 61%.
“GGCCTCAGACTACATCC (sugars e2 k2 d9 k2 e2, PS)” was tested, and the target mRNA inhibition (HepG2, 0.1875 µM) was 4%, the target mRNA inhibition (HepG2, 0.75 µM) was 50% and the target mRNA inhibition (HepG2, 3 µM) was 68%. It also gave a target mRNA inhibition (HepG2, 4 µM) of 76% and a target mRNA inhibition (HepG2, 12 µM) of 86%.
In the case of “CCCCACACCTTCACTG (sugars ekddddddddekekee, linkages s1 o1 s8 o3 s2)”, the target mRNA inhibition (A431, 0.12 µM) was 0%, the target mRNA inhibition (A431, 0.6 µM) was 0% and the target mRNA inhibition (A431, 3 µM) was 0%. For the same sequence, the target mRNA inhibition (A431, 15 µM) was 0%, the target mRNA inhibition (HepG2, 0.222 µM) was 21% and the target mRNA inhibition (HepG2, 0.667 µM) was 36%. It also gave a target mRNA inhibition (HepG2, 2 µM) of 60% and a target mRNA inhibition (HepG2, 6 µM) of 75%.
Sequence “CAGACTACATCCAAGGG (sugars e3 k2 d7 k2 e3, PS)” has a target mRNA inhibition (HepG2, 3 µM) of 53%.
In the case of “CGTCGCCCTTCAGCACG (sugars e2 k2 d9 k2 e2, PS)”, the target mRNA inhibition (HepG2, 4 µM) was 43%.
Work on “GTCATTGAAACAGACAT (sugars e2 k2 d8 k2 e3, PS)” yielded a target mRNA inhibition (HepG2, 5 µM) of 2%.
“TACCCATCTGTGATTTAAGT (sugars e5 d10 e5, PS)” gave a target mRNA inhibition (HepG2, 5 µM) of 50%.
Work on “TTAGTTTGAATTTGGATTCT (sugars e5 d10 e5, PS)” yielded a target mRNA inhibition (HepG2, 5 µM) of 0%.
Work on “TCATTGAAACAGACATT (sugars e3 k2 d7 k2 e3, PS)” yielded a target mRNA inhibition (HepG2, 3 µM) of 10%.
In the case of “GCAGGATAACAGATGAG (sugars e2 k2 d9 k2 e2, PS)”, the target mRNA inhibition (HepG2, 0.1875 µM) was 31%, the target mRNA inhibition (HepG2, 0.75 µM) was 75% and the target mRNA inhibition (HepG2, 3 µM) was 90%. The target mRNA inhibition (HepG2, 4 µM) was 86% and 83% and the target mRNA inhibition (HepG2, 12 µM) was 89% and 97%.
